Assay results taken from US9512156B2, “Carbon monoxide releasing rhenium compounds for medical use” (UNIVERSITY OF ZURICH, priority 2010, dated 2016).

Assays:
[1] = Deoxygenation of cell-free incubation medium; details: within minutes after administration, dose-dependent (FIG. 9A: 60 μM, 10 min)
From the text: Therefore, the effect of the three selected CO-RMs on oxygen consumption by NRCs was investigated.

[2] = Solubility in water and organic solvents; format: physicochemical
[3] = tested on: horse skeletal myoglobin (Mb); test: Detection of CO release using the myoglobin assay (conversion of Mb to MbCO); format: biochemical; details: pH 7.4, 25° C.
Method: Changes in the Mb spectra were recorded over time at 25° C. The methanol or DMSO content of the solution never exceeded 0.5%. […] The MbCO concentration was plotted over time and directly related to the equivalents of CO released from the compounds. The half-life of CO release from the Re compounds at different pH's was then estimated from the graphs. Control experiments were run under identical conditions but without addition of the metal complexes. All manipulations were performed under a pure N2 atmosphere in a wet box.
The final methanol or DMSO content of the buffered aqueous solution never exceeded 0.5%. The conversion of Mb to carbon monoxide myoglobin (MbCO) was followed over time by measuring the changes in the absorption spectra of the Q band region of this protein at pH 7.4, 6.3 and 5.8 after addition of the Re^II complex.
The amount of MbCO formed over time after addition of the Re complex to the Mb solution was calculated according to the known extinction coefficients. The MbCO concentration was directly related to the equivalents of CO released from the compounds and these were plotted as a function of time.

[4] = tested on: neonatal rat cardiomyocyte (NRC); test: Cytotoxicity towards neonatal rat cardiomyocytes under normal conditions; format: cell-based; details: normal physiological conditions, up to a tested concentration of 120 μM
Method: B12-CORM-2 and 4 (Scheme 3) were tested for their cytotoxic and their cytoprotective effects using the neonatal rat cardiomyocyte (NRC) cell-based model of ischemia-reperfusion injury (I/R) as previously described (Zobi et al., Inorg. Chem. 2010, 49, 7313-7322). The membrane-impermeable ReII-CORMs studied so far were non-toxic in the micromolar concentration range. To test for the possible uptake of B12-CO-RMs by cells incubation of NRCs with 30 μM of B12-CORM-2 and 4 was performed and cell culture medium samples were collected over 180 min of incubation. […] The fraction of dead cells tended to decrease in the presence of CORMs, but, due to the high variability, the differences were not statistically significant (2.7±1.7% in control vs 1.1±0.3 and 1.0±0.2 in the presence of B12-CORM-2 and B12-CORM-4 respectively).

[5] = tested on: neonatal rat ventricular cardiomyocytes (NRCs); details: Zobi et al., Inorg. Chem. 2010, 49, 7313-7322; cited from earlier work
[6] = tested on: intracellular reduced glutathione (GSH) in NRCs; test: Intracellular reduced glutathione (GSH) in NRCs after ischemia and 10 min of reperfusion; format: cell-based, rat; details: 30 μM, 10 min after the onset of reperfusion
Method: FIG. 9. Regulation of oxygen availability and the intracellular reduced glutathione content by Re-CORMs. A: Reduction in oxygen content in the incubation medium within 10 min after addition of 60 μM of 2, 6 and B12-CORM-2; N=6-8. Given are means±SEM. B: Intracellular reduced glutathione (GSH) content in NRCs exposed to 16 h of ischemia and 10 min of reperfusion in the presence or absence of CO-RMs. N=4 Data are means±SEM.
Oxidative stress triggered by acute hyperoxygenation is a hallmark of reperfusion injury. Based on the findings presented in FIG. 9A selected CORMs may be viewed as oxygen scavengers which, when applied early on during reperfusion, may reduce the cellular oxidative damage. To test this hypothesis intracellular reduced glutathione (GSH) levels were determined in cells 10 min after the “onset of reperfusion” in the presence or absence of 30 μM 2, 6 and B12-CORM-2. […] (FIG. 9B). This acute antioxidative effect of 2 most likely reflects the ability of the intermediates formed upon CO release to react with oxygen forming ReO4^−.

[7] = Stability under aerobic conditions (solid, solution); format: physicochemical

Question: Which results are given for CC[N+](CC)(CC)CC.CC[N+](CC)(CC)CC.[Br][Re-2]([Br])([Br])[Br].[C-]#[O+].[C-]#[O+] [Compound 2, [Et4N]2[Re^IIBr4(CO)2]]?
Answer: deoxygenation of the cell-free medium [1]: resulted in deoxygenation; solubility in water [2]: well soluble in water; time to saturation of Mb with CO liberated from the compound [3]: ≤ 30 min; cytotoxicity towards NRCs [4]: no cytotoxicity; cytoprotective effects against I/R injury [5]: substantial cytoprotective effects; intracellular reduced glutathione (GSH) levels [6]: increase

Question: Which “stability as solids under aerobic conditions” value (“stability as solids” for short) [7] does the source give for Cn1ccnc1.Cn1ccnc1.[Br][Re][Br].[C-]#[O+].[C-]#[O+] [Compound 3, [ReBr2(CO)2(MeIm)2]] here?
Answer: The value was “slowly decomposed over time”.

Question: For [Br][Re][Br].[C-]#[O+].[C-]#[O+].c1ccc2[nH]cnc2c1.c1ccc2[nH]cnc2c1 [Compound 4, [ReBr2(CO)2(BzIm)2]], which “stability as solids” value [7] is on record?
Answer: The value was “indefinitely stable”.

Question: For Cc1ccncc1.Cc1ccncc1.[Br][Re][Br].[C-]#[O+].[C-]#[O+] [Compound 5, [ReBr2(CO)2(4-pic)2]], which “stability as solids” value [7] is on record?
Answer: Its value is “indefinitely stable”.

Question: For [Br][Re]([Br])([n+]1cc[nH]c1)[n+]1cc[nH]c1.[C-]#[O+].[C-]#[O+] [Compound 6, cis-trans-[Re^II(CO)2Br2(Im)2]], which “cytotoxicity towards NRCs” value [4] is on record?
Answer: The value was “no cytotoxicity”.

Question: And the “cytoprotective effects against I/R injury” value [5]?
Answer: Its value is “substantial cytoprotective effects”.
